{"source": "patent US20070259935A1", "about": "“CRYSTALLINE FORMS OF LETROZOLE AND PROCESSES FOR MAKING THEM” (priority 2006, published 2007)", "key": {"[1]": {"details": "cited from earlier work"}, "[2]": {"assay": "Crystal form conversion on stirring in solvent", "assay_type": "physicochemical"}, "[3]": {"assay": "Crystal form conversion during annealing", "assay_type": "physicochemical", "details": "annealing above 140° C."}, "[4]": {"assay": "Relative stability of the crystalline forms (cooling rate observations in toluene)", "assay_type": "physicochemical", "details": "concluded from slow versus faster cooling in toluene and the conversion observations", "source_text": "Slow cooling a solution of letrozole in toluene gave mainly Form I, whereas faster cooling a solution in toluene gave Form II.\nIndeed, due to the relative instability of Form II, the use of Form II or a mixture of Forms I and II could be liable to conversion during storage to form some or more Form I, respectively. Such a variation in crystalline form is generally undesirable in pharmaceuticals as the different forms can have different properties, e.g. bio-absorption, solubility, degradation, etc. Thus, while the use of either crystalline form in a pharmaceutical composition is contemplated, making the composition from a crystalline letrozole that has an XRPD substantially corresponding to FIG. 1 is preferred."}}, "note": "Entries after “also recorded” stand apart in the source; their conditions may differ.", "data": [{"smiles": "N#Cc1ccc(C(c2ccc(C#N)cc2)n2cncn2)cc1", "note": "[Letrozole, 4,4′-(H-1,2,4-Triazol-1-ylmethylene)dibenzonitrile]", "values": [{"measurement": "solubility in dichloromethane", "setting": "[1]; dichloromethane", "result": "freely soluble"}, {"measurement": "solubility in ethanol", "setting": "[1]; ethanol", "result": "slightly"}, {"measurement": "solubility in water", "setting": "[1]; water", "result": "practically insoluble"}]}, {"smiles": "N#Cc1ccc(C(c2ccc(C#N)cc2)n2cncn2)cc1", "note": "[Form I, 4,4′-(H-1,2,4-Triazol-1-ylmethylene)dibenzonitrile]", "values": [{"measurement": "conversion of crystalline form when stirred in a solvent for 2 weeks", "setting": "[2]; stirred in a solvent for 2 weeks", "result": "does not convert into Form II"}, {"measurement": "conversion of crystalline form when stirred in various solvents", "setting": "[2]; stirred in various solvents", "result": "does not convert"}, {"measurement": "conversion of crystalline form during annealing", "setting": "[3]", "result": "does not convert"}, {"measurement": "kinetic versus thermodynamic form / relative stability", "setting": "[4]", "result": "thermodynamically stable form"}]}, {"smiles": "N#Cc1ccc(C(c2ccc(C#N)cc2)n2cncn2)cc1", "note": "[Form II, 4,4′-(H-1,2,4-Triazol-1-ylmethylene)dibenzonitrile]", "values": [{"measurement": "conversion of crystalline form when stirred in ethanol", "setting": "[2]; stirred in ethanol at room temperature", "result": "(partially) converted into Form I"}, {"measurement": "conversion of crystalline form during annealing", "setting": "[3]", "result": "(partially) converted into form I"}, {"measurement": "kinetic versus thermodynamic form / relative stability", "setting": "[4]", "result": "kinetic form; also recorded: generally less stable than the Form I"}]}]}
